Assay [1] has as its system MCF-7 (breast cancer cell). The experiment in a line: MTT antiproliferative assay (cell growth %, GI50), MCF-7. The settings on record: Homo sapiens, MCF7, 48 hours, MTT; for activity at 4000 µg/mL: 4 mg/ml; for activity at 20000 µg/mL: 20 mg/ml. The format is cell-based. On the procedure: (§1) Antiproliferative activities of the compounds of this invention were evaluated substantially according to the method as described in Tseng, C. […] The cells were treated with the test compounds, i.e., the compounds of this invention (in dimethylsulfoxide (DMSO)), or DMSO for 48 hours.
(§2) Before and after the treatment with the test compounds or DMSO, 3-(4,5-dimethylthiazol-2-yl)-2,5-diphenyltetrazolium bromide (MTT, 2 mg/mL, 100 μL) was added to each of the cultures, followed by cultivation for 2 hours. The resultant formazan was dissolved by the addition of DMSO. Absorbance at 570 nm (OD570) was measured using a microtiter plate reader (Dynex MRX-II).
(§3) Determination of GI50 was conducted thrice for each test compound. GI50 is expressed as mean±SD.

Assay [2] relates to NCI-H460 (non-small cell lung carcinoma cell). The assay is described as follows: MTT antiproliferative assay (cell growth %, GI50), NCI-H460. The format is cell-based. The settings on record: Homo sapiens, NCI-H460, 48 hours, MTT; for activity at 4000 µg/mL: 4 mg/ml; for activity at 20000 µg/mL: 20 mg/ml. On the procedure: as §1, §2, §3

With `C/C(=N\OCCN(C)C)c1ccc(Nc2c3ccccc3nc3occc23)cc1` [Compound 13b, (E)-1-(4-(Furo[2,3-b]quinolin-4-ylamino)phenyl)ethanone O-2-(dimethylamino)ethyl oxime], in assay [1], the activity at 4000 µg/mL was determined as 59% and the activity at 20000 µg/mL came to 0%. For the same compound, in assay [2], the activity at 4000 µg/mL came to 94% and the activity at 20000 µg/mL was found to be 0%.
Take `C/C(=N\OCCCN(C)C)c1ccc(Nc2c3ccccc3nc3occc23)cc1` [Compound 13d, (E)-1-(4-(Furo[2,3-b]quinolin-4-ylamino)phenyl)ethanone O-3-(dimethylamino)propyl oxime]: in assay [1], the activity at 4000 µg/mL was 84% and the activity at 20000 µg/mL was found to be 22%. Also, in assay [2], the activity at 4000 µg/mL is 52% and the activity at 20000 µg/mL was determined as 7%.
For `C/C(=N\OCCN1CCCC1)c1ccc(Nc2c3ccccc3nc3occc23)cc1` [Compound 13e, (E)-1-(4-(Furo[2,3-b]quinolin-4-ylamino)phenyl)ethanone O-2-(pyrrolidin-1-yl)ethyl oxime], in that order: 64%, 6%, 54% and 1%.
For `C/C(=N\OCCN1CCCCC1)c1ccc(Nc2c3ccccc3nc3occc23)cc1` [Compound 13f, (E)-1-(4-(Furo[2,3-b]quinolin-4-ylamino)phenyl)ethanone O-2-(piperidin-1-yl)ethyl oxime], in that order: 114%, 3%, 99% and -1%.
Regarding `C/C(=N\OCCN1CCOCC1)c1ccc(Nc2c3ccccc3nc3occc23)cc1` [Compound 13g, (E)-1-(4-(Furo[2,3-b]quinolin-4-ylamino)phenyl)ethanone O-2-morpholinoethyl oxime], in assay [1], the activity at 4000 µg/mL is 120% and the activity at 20000 µg/mL was determined as 56%. Also, in assay [2], the activity at 4000 µg/mL turned out to be 108% and the activity at 20000 µg/mL stood at 23%.
With `C/C(=N\OCCCCN1CCOCC1)c1ccc(Nc2c3ccccc3nc3occc23)cc1` [Compound 13h, (E)-1-(4-(Furo[2,3-b]quinolin-4-ylamino)phenyl)ethanone O-4-morpholinobutyl oxime], in assay [1], the activity at 4000 µg/mL is 76% and the activity at 20000 µg/mL was -2%. In assay [2], the activity at 4000 µg/mL stood at 118% and the activity at 20000 µg/mL was -1%.
In the case of `C/C(=N\OCCN(C)C)c1ccc(Nc2c3ccccc3nc3occ(Cl)c23)cc1` [Compound 14b, (E)-1-(4-(3-Chlorofuro[2,3-b]quinolin-4-ylamino)phenyl)ethanone O-2-(dimethylamino)ethyl oxime], in assay [1], the activity at 4000 µg/mL was found to be 70% and the activity at 20000 µg/mL was -3%. Besides, in assay [2], the activity at 4000 µg/mL was found to be 68% and the activity at 20000 µg/mL is -1%.
In the case of `C/C(=N\OCCCN(C)C)c1ccc(Nc2c3ccccc3nc3occ(Cl)c23)cc1` [Compound 14d, (E)-1-(4-(3-Chlorofuro[2,3-b]quinolin-4-ylamino)phenyl)ethanone O-3-(dimethylamino)propyl oxime], in assay [1], the activity at 4000 µg/mL was found to be 61% and the activity at 20000 µg/mL is 1%. For the same compound, in assay [2], the activity at 4000 µg/mL was 52% and the activity at 20000 µg/mL was found to be 1%.
`C/C(=N\OCCN1CCCC1)c1ccc(Nc2c3ccccc3nc3occ(Cl)c23)cc1` [Compound 14e, (E)-1-(4-(3-Chlorofuro[2,3-b]quinolin-4-ylamino)phenyl)ethanone O-2-(pyrrolidin-1-yl)ethyl oxime]: in assay [1], the activity at 4000 µg/mL amounted to 86% and the activity at 20000 µg/mL was -2%. Moreover, in assay [2], the activity at 4000 µg/mL was found to be 69% and the activity at 20000 µg/mL is -1%.
The like results for `C/C(=N\OCCN1CCCCC1)c1ccc(Nc2c3ccccc3nc3occ(Cl)c23)cc1` [Compound 14f, (E)-1-(4-(3-Chlorofuro[2,3-b]quinolin-4-ylamino)phenyl)ethanone O-2-(piperidin-1-yl)ethyl oxime] were, in that order, 121%, 26%, 101% and 3%.
With `C/C(=N\OCCN1CCOCC1)c1ccc(Nc2c3ccccc3nc3occ(Cl)c23)cc1` [Compound 14g, (E)-1-(4-(3-Chlorofuro[2,3-b]quinolin-4-ylamino)phenyl)ethanone O-2-morpholinoethyl oxime], the activity at 4000 µg/mL came out at 112% in assay [1] and 107% in assay [2]. For the same compound, the values for the activity at 20000 µg/mL in assay [1] and in assay [2] were 54% and 16%, respectively.
The like results for `C/C(=N\OCCCCN1CCOCC1)c1ccc(Nc2c3ccccc3nc3occ(Cl)c23)cc1` [Compound 14h, (E)-1-(4-(3-Chlorofuro[2,3-b]quinolin-4-ylamino)phenyl)ethanone O-4-morpholinobutyl oxime] were, in that order, 75%, 91%, -3% and 3%.
The like results for `COc1ccc2c(Nc3ccc(/C(C)=N/OCCN(C)C)cc3)c3ccoc3nc2c1` [Compound 15b, (E)-1-(4-(7-Methoxyfuro[2,3-b]quinolin-4-ylamino)phenyl)ethanone O-2-(dimethylamino)ethyl oxime] were, in that order, 67%, 75%, -1% and -1%.
Consider `COc1ccc2c(Nc3ccc(/C(C)=N/OCCCN)cc3)c3ccoc3nc2c1` [Compound 15c, (E)-1-(4-(7-Methoxyfuro[2,3-b]quinolin-4-ylamino)phenyl)ethanone O-3-aminopropyl oxime], for which the activity at 4000 µg/mL came to 100% in assay [1] and 105% in assay [2]. For the same compound, the activity at 20000 µg/mL in assay [1] amounted to 18%; in assay [2], 16%.
The like results for `COc1ccc2c(Nc3ccc(/C(C)=N/OCCCN(C)C)cc3)c3ccoc3nc2c1` [Compound 15d, (E)-1-(4-(7-Methoxyfuro[2,3-b]quinolin-4-ylamino)phenyl)ethanone O-3-(dimethylamino)propyl oxime] were, in that order, 59%, 82%, 2% and 5%.
On to `COc1ccc2c(Nc3ccc(/C(C)=N/OCCN4CCCC4)cc3)c3ccoc3nc2c1` [Compound 15e, (E)-1-(4-(7-Methoxyfuro[2,3-b]quinolin-4-ylamino)phenyl)ethanone O-2-(pyrrolidin-1-yl)ethyl oxime], for which, in assay [1], the activity at 4000 µg/mL was determined as 63% and the activity at 20000 µg/mL came to 3%. In assay [2], the activity at 4000 µg/mL is 69% and the activity at 20000 µg/mL came out at 5%.
The like results for `COc1ccc2c(Nc3ccc(/C(C)=N/OCCN4CCCCC4)cc3)c3ccoc3nc2c1` [Compound 15f, (E)-1-(4-(7-Methoxyfuro[2,3-b]quinolin-4-ylamino)phenyl)ethanone O-2-(piperidin-1-yl)ethyl oxime] were, in that order, 77%, 2%, 84% and 9%.
For `COc1ccc2c(Nc3ccc(/C(C)=N/OCCN4CCOCC4)cc3)c3ccoc3nc2c1` [Compound 15g, (E)-1-(4-(7-Methoxyfuro[2,3-b]quinolin-4-ylamino)phenyl)ethanone O-2-morpholinoethyl oxime], in that order: 76%, 25%, 96% and 44%.
For `COc1ccc2c(Nc3ccc(/C(C)=N/OCCCCN4CCOCC4)cc3)c3ccoc3nc2c1` [Compound 15h, (E)-1-(4-(7-Methoxyfuro[2,3-b]quinolin-4-ylamino)phenyl)ethanone O-4-morpholinobutyl oxime], in that order: 83%, 75%, 89% and 21%.
With `COc1ccc2c(Nc3ccc(/C(C)=N/OCCCN)cc3)c3c(Cl)coc3nc2c1` [Compound 16c, (E)-1-(4-(3-Chloro-7-methoxyfuro[2,3-b]quinolin-4-ylamino)phenyl)ethanone O-3-aminopropyl oxime], in assay [1], the activity at 4000 µg/mL came to 101% and the activity at 20000 µg/mL was 3%. Besides, in assay [2], the activity at 4000 µg/mL was 91% and the activity at 20000 µg/mL turned out to be 8%.
The like results for `COc1ccc2c(Nc3ccc(/C(C)=N/OCCN4CCCC4)cc3)c3c(Cl)coc3nc2c1` [Compound 16e, (E)-1-(4-(3-Chloro-7-methoxyfuro[2,3-b]quinolin-4-ylamino)phenyl)ethanone O-2-(pyrrolidin-1-yl)ethyl oxime] were, in that order, 55%, 1%, 53% and 5%.
Take `COc1ccc2c(Nc3ccc(/C(C)=N/OCCN4CCCCC4)cc3)c3c(Cl)coc3nc2c1` [Compound 16f, (E)-1-(4-(3-Chloro-7-methoxyfuro[2,3-b]quinolin-4-ylamino)phenyl)ethanone O-2-(piperidin-1-yl)ethyl oxime]: in assay [1], the activity at 4000 µg/mL is 56% and the activity at 20000 µg/mL is -1%. In assay [2], the activity at 4000 µg/mL worked out at 67% and the activity at 20000 µg/mL is 3%.

For the origin of these results see patent US8952033B2, “4-anilinofuro[2,3-b]quinoline derivatives, their preparation processes, and pharmaceutical compositions comprising the same” (Kaohsiung Medical University, priority 2011, dated 2015).
